Ten molecules from ChEMBL document CHEMBL1201862, “PubChem BioAssay data set” (2004) can be followed below.

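Where inhibition never reached the appropriate level, the endpoint shown equals the highest concentration tested. Otherwise, values were interpolated linearly from a five-concentration, 48-hour dose response in 96-well plates. At the GI50, growth is halved.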 The source made the active and inactive calls. No stated cut-off is given here; in the data, active = GI50 up to about 1.1 µM and inactive = higher. Some results are limits rather than exact numbers.

Test in all cases: NCI-60 cell line screen, 48 h
Assay [1] deals with A549.
In assay [2] the test system is CAKI-1.
Assay [3] has as its system HCT-15.
For assay [4], the system named is HOP-62.
Assay [5] relates to K562.
For assay [6], the system named is Malme-3M.
Assay [7] relates to NCI-H226.
For assay [8], the system named is NCI-H460.
Assay [9] concerns OVCAR-4.
The test system of assay [10] is OVCAR-5.
Assay [11] has as its system RPMI-8226.
Assay [12] relates to SF-268.
Assay [13] has as its system SF-539.
The test system of assay [14] is SK-MEL-2.
The subject of assay [15] is SK-MEL-5.
In assay [16] the test system is SNB-19.
The test system of assay [17] is SNB-75.
Assay [18] concerns SW-620.
Assay [19] concerns U-251.
The test system of assay [20] is UACC-257.

Turning to `COc1cc(C(=O)c2cocc2C(=O)c2ccc3c(c2)OCO3)cc(OC)c1OC`, the GI50 in assay [1] is 5.26 µM (inactive); in [2], 0.378 µM (active); in [3], 0.347 µM; in [4], 1 µM (active); in assay [5] it was 0.151 µM (active); in assay [6], 0.312 µM (active). Further, the GI50 in assay [7] was 1.8 µM (inactive); in assay [8], 0.658 µM (active); in assay [9], 18.5 µM (inactive); in assay [10], 18.6 µM (inactive); in assay [11] it was 0.628 µM (active); in assay [12], 0.802 µM (active). Besides, the GI50 in [13] is 0.399 µM (active); in assay [14], 0.619 µM (active); in assay [15] it was 0.232 µM (active); in assay [16], 0.933 µM (active); in assay [17], 0.336 µM (active); in assay [18] it was 0.316 µM (active). The GI50 in [19] was 0.537 µM (active); in [20] it was 0.531 µM (active).

Turning to `COC(=O)c1cc2c(n1S(=O)(=O)c1ccc(C)cc1)C(=O)C(=O)c1[nH]cc(C(=O)OCc3ccccc3)c1-2`, the GI50 in [1] was 0.183 µM (active); in assay [2] it was 0.355 µM (active); in assay [3] it was 0.0673 µM; in assay [4], 0.149 µM (active); in assay [5] it was 0.0439 µM (active); in assay [6], 0.0321 µM (active). Further, the GI50 was 0.199 µM (active) in assay [7]; 1.37 µM (inactive) in assay [8]; 0.209 µM (active) in assay [9]; 0.575 µM (active) in assay [10]; 0.0883 µM (active) in [11]; 0.221 µM (active) in [12]. The GI50 in [13] was 0.136 µM (active); in assay [14], 0.112 µM (active); in [15], 0.0237 µM (active); in assay [16], 0.191 µM (active); in assay [17], 0.147 µM (active); in assay [18] it was 0.0514 µM (active). Besides, the figures for the GI50 in [19] and in [20] were 0.172 µM (active) and 0.0322 µM (active), respectively.

`CCCCCCNCCCNc1c2ccccc2nc2cccc([N+](=O)[O-])c12`: the GI50 in assay [1] is 0.00409 µM (active); in assay [2] it was 0.0548 µM (active); in assay [3], 0.0615 µM; in assay [4], 0.0245 µM (active); in assay [5] it was 0.00376 µM (active); in assay [6] it was 0.0206 µM (active). Also, the GI50 in [7] is 0.0547 µM (active); in [8], 0.00269 µM (active); in [9], 0.0147 µM (active); in assay [10] it was 0.0315 µM (active); in [11] it was 0.00247 µM (active); in assay [12], 0.0163 µM (active). Moreover, the GI50 in assay [13] is 0.116 µM (active); in [14], 0.0181 µM (active); in [15], 0.0103 µM (active); in assay [16], 0.0845 µM (active); in assay [17] it was 0.0485 µM (active); in [18], 0.00481 µM (active). The GI50 is 0.0118 µM (active) in assay [19] and 0.101 µM (active) in assay [20].

As for `C[n+]1cn(CC(=O)c2ccccc2)c(C(N)=O)c1N`, the GI50 in assay [1] was > 100 µM (inactive); in assay [2], > 100 µM (inactive); in assay [3] it was 80.7 µM; in [4], > 100 µM (inactive); in assay [5], > 10 µM (inactive); in assay [6] it was > 100 µM (inactive). Moreover, the GI50 in assay [7] is > 100 µM (inactive); in [8], > 100 µM (inactive); in assay [9], > 100 µM (inactive); in assay [10], > 100 µM (inactive); in [11], 45.1 µM (inactive); in [12], > 100 µM (inactive). The GI50 in assay [13] is > 100 µM (inactive); in assay [14] it was > 100 µM (inactive); in assay [15], 33 µM (inactive); in assay [16] it was > 100 µM (inactive); in assay [17] it was > 100 µM (inactive); in assay [18] it was 11 µM (inactive). The results for the GI50 in assay [19] and in assay [20] were 94.6 µM (inactive) and > 100 µM (inactive), respectively.

In the case of `N#CC(C(=O)CCCC(=O)Nc1ccccc1[N+](=O)[O-])c1c(Cl)cccc1Cl` (stereo not given), the GI50 in [1] was > 100 µM (inactive); in assay [2], > 100 µM (inactive); in assay [3], more than 100 µM; in assay [4], > 100 µM (inactive); in assay [5], > 100 µM (inactive); in [6], > 100 µM (inactive). Moreover, the GI50 in [7], in assay [8], in assay [9], in assay [10], in [11] and in assay [12] was > 100 µM (inactive) in each case. For the same molecule, the GI50 in [13], in assay [14], in assay [15], in assay [16], in [17] and in assay [18] was > 100 µM (inactive) in each case. Besides, the GI50 in assay [19] and in [20] was > 100 µM (inactive) each time.

Turning to `O=c1[nH]c(=O)n(C2CC(O)C(CO)O2)cc1C#Cc1c(F)c(F)c(F)c(F)c1F` (stereo not given), the GI50 is > 100 µM (inactive) in assay [1]; > 100 µM (inactive) in [2]; more than 100 µM in [3]; > 100 µM (inactive) in assay [4]; > 100 µM (inactive) in assay [5]; > 100 µM (inactive) in [6]. For the same molecule, the GI50 in assay [7], in [8], in assay [9], in [10], in [11] and in [12] was > 100 µM (inactive) throughout. Further, the GI50 in assay [13], in assay [14], in assay [15], in assay [16], in assay [17] and in assay [18] was > 100 µM (inactive) in each case. In addition, the GI50 in [19] and in [20] was > 100 µM (inactive) throughout.

In the case of `Cc1ccccc1C(=O)N1CCc2c([nH]c3ccccc23)C1`, the GI50 in assay [1] is 35.9 µM (inactive); in assay [2] it was 24.4 µM (inactive); in [3], 21.3 µM; in assay [4], 33.8 µM (inactive); in assay [5], 21.4 µM (inactive); in assay [6], 24.8 µM (inactive). Also, the GI50 in assay [7] was 21.8 µM (inactive); in assay [8], 21.7 µM (inactive); in [9] it was 22.6 µM (inactive); in [10], 19.5 µM (inactive); in [11], 21.2 µM (inactive); in assay [12] it was 35.6 µM (inactive). Also, the GI50 in [13] was 21.5 µM (inactive); in assay [14] it was 12.8 µM (inactive); in assay [15] it was 15.9 µM (inactive); in assay [16], 41.7 µM (inactive); in assay [17], 20.6 µM (inactive); in assay [18], 27.6 µM (inactive). The GI50 in [19] is 18 µM (inactive); in assay [20], 23.9 µM (inactive).

Take `COC(=O)c1ccccc1C1CN=NC12Cc1c(ccc3c1CCC3)C2=O` (stereo not given): the GI50 is > 100 µM (inactive) in assay [1]; > 100 µM (inactive) in [2]; 41.5 µM in assay [3]; > 100 µM (inactive) in assay [4]; 39.1 µM (inactive) in assay [5]; > 100 µM (inactive) in [6]. In addition, the GI50 is 41.5 µM (inactive) in [7]; > 100 µM (inactive) in assay [8]; 45.2 µM (inactive) in assay [9]; 84.3 µM (inactive) in assay [10]; 28.8 µM (inactive) in [11]; > 100 µM (inactive) in [12]. The GI50 in assay [13] was > 100 µM (inactive); in [14], 35.1 µM (inactive); in assay [15] it was 25.4 µM (inactive); in assay [16], > 100 µM (inactive); in assay [17], 51.8 µM (inactive); in [18], 65.3 µM (inactive). The values for the GI50 in [19] and in assay [20] were 41 µM (inactive) and 15.7 µM (inactive), respectively.

In the case of `CC(=O)/C(=C/NC(=S)Nc1ccccc1)C(=O)Nc1ccccc1C`, the GI50 in [1] is > 100 µM (inactive); in assay [2], 40.9 µM (inactive); in assay [3] it was more than 100 µM; in [4], > 100 µM (inactive); in assay [5], 96.2 µM (inactive); in [6], > 100 µM (inactive). Besides, the GI50 in assay [7] is > 100 µM (inactive); in [8], > 100 µM (inactive); in assay [9], > 100 µM (inactive); in assay [10], > 100 µM (inactive); in assay [11], > 100 µM (inactive); in assay [12], 91 µM (inactive). Besides, the GI50 in [13] is > 100 µM (inactive); in assay [14], > 100 µM (inactive); in assay [15], 61.2 µM (inactive); in [16], > 100 µM (inactive); in assay [17], 49.9 µM (inactive); in [18] it was > 100 µM (inactive). Besides, the GI50 in assay [19] and in assay [20] was > 100 µM (inactive) each time.

`CC(C)(C)OC(=O)NCCCCC(NC(=O)OCc1ccccc1)C(N)=O` (stereo not given): the GI50 in assay [1] was > 100 µM (inactive); in assay [2], > 100 µM (inactive); in assay [3] it was more than 100 µM; in assay [4] it was > 100 µM (inactive); in assay [5], > 100 µM (inactive); in [6], > 100 µM (inactive). In addition, the GI50 in assay [7], in [8], in assay [9], in [10], in assay [11] and in assay [12] was > 100 µM (inactive) in each case. In addition, the GI50 in [13] is > 100 µM (inactive); in assay [14], > 100 µM (inactive); in assay [15], 58.3 µM (inactive); in assay [16], > 100 µM (inactive); in assay [17], > 100 µM (inactive); in assay [18], > 100 µM (inactive). Also, the GI50 in assay [19] and in assay [20] was > 100 µM (inactive) in each case.
